Source: patent US12221494B2, “Short synthetic peptides and their uses for treating retinal degenerative diseases and/or tissue injuries” (MacKay Memorial Hospital, priority 2019, dated 2025)

Columns and labels:
survivin mRNA [1] = assay: Real-time qPCR of survivin mRNA in C2C12 cells; type: cell-based, mouse; settings: stimulated for 3 h
[2] = tested on: C57BL/6 mice, dry eye induced in controlled environment chamber (CEC); assay: Dry eye animal model, corneal fluorescein staining; type: in vivo, mouse; settings: mice 14 days in CEC, then 100 μM peptide eye drop three times a day for 4 days (Day 4); day 0 score 3±0
Procedure: Dry eyes were induced by placing mice in a controlled environment chamber (CEC) for 14 days in accordance with procedures previously described by Barabino et al (IVOS (2005) 46(8), 2766-2771). Mice placed in the CEC were exposed to a condition, in which relative humidity (RH) was maintained at <25%, temperature at 20-22° C., and airflow at about 15 L/min, for 12 hours per day. Control mice were kept in a normal environment (RH>50%, no air flow, temperature of 20-22° C.) for the same duration.
A common artificial tear formulation, 1% carboxymethylcelllulose (CMC) dissolved in balanced salt solution (BSS) was used as the peptide vehicle. Peptide (100 μM, about 0.7 μg peptide in 10 μl eye drop used for treating one eye) or 1% CMC vehicle was topically administered to eyes three times a day. To test whether the present synthetic peptide could exert any therapeutic action on dry eyes, mice were housed at CEC for 14 days without topical treatment, and then were treated with the present peptide for 4 days.
Animals were anesthetized by an intraperitoneal injection of a mixture of zoletil (6 mg/kg) and xylazine (3 mg/kg). Corneal epithelial injury was determined by staining with topical fluorescein (Fluor-I-Strip, Ayerst Laboratories, Philadelphia, PA). Corneal fluorescein staining was examined with a slit-lamp biomicroscope under cobalt blue light and photographed with a digital camera. Dye staining of the cornea was scored in a blinded manner as follows: score 0 for no punctuate staining; score 1 when less than one third of the cornea was stained; score 2 when two thirds or less was stained; and score 3 when more than two thirds was stained (Horwath-Winter J 2013).
Briefly, mice were housed at controlled environment chamber (CEC) for 14 days (set as Day 0) to induce corneal surface disruption. Corneal fluorescein staining was used to estimate the corneal surface injury and the animal with a staining score of 2 (after mice placed at CEC for 14 days) was subjected to peptide treatment. The 6-mer variant peptide formulation for the treatment of DED was described in Methods. […]

[3] = tested on: STZ-induced diabetic mice; assay: Vascular abnormalities (FITC-BSA hemorrhaging areas) in the retina of STZ-induced diabetic mice; type: in vivo, mouse; settings: 200 μM eye drop three times a day for 14 days, vehicle control 8.2±1.5
Procedure: Diabetic mice were generated by intraperitoneal injection of streptozotocin (STZ; 200 mg/kg body weight) at day 1 and day 3. STZ was freshly prepared in 0.1 M citrate buffer (pH 4.5). After injection, mice were supplied with 10% sucrose overnight to prevent sudden hypoglycaemic shock. After 1 week (day 7), mice with non-fasting blood glucose levels >500 mg/dl were defined as diabetic and used for the experiments. Balanced salt solution (BSS) was served as peptide vehicle (Alcon, Novartis). 6-mer analogues (dissolved in BSS to 200 μM) eye drop were topically administered to eyes three times a day. After 2 weeks (day 14), mice were intraperitoneal injection of 100 mg/kg of FITC-BSA for further 30 min to determine vascular lesions (hemorrhaging areas) in retina. Subsequently, the animals were euthanized by CO2 inhalation, and the eyes were enucleated and fixed with 4% PFA for overnight at 4° Cand flat-mounted onto glass slides to obtain optical sections. Vascular lesions in the retina was scored in all four retinal quadrants of flat mounts by an epifluorescence microscopy at 200×. Three microscopic fields were sampled in each quadrant in both the central and peripheral retina, and data were presented as the average number of lesions/retina.
Microscopic appearance of degenerate capillaries in the I/R-induced retina are similar to that of acellular capillaries found in diabetic retinopathy. […]

survivin mRNA [4] = assay: Real-time qPCR of survivin mRNA in C2C12 cells; type: cell-based, mouse; settings: C2C12 cells in low serum media, 20 μM peptide, 6 h
Procedure: Total RNA was extracted from cells using TRIzol (Invitrogen). Synthesis of cDNA was performed with 1 μg of total RNA at 50° C. for 50 min using oligo(dT) primers and reverse transcriptase (Superscript III; Invitrogen). Briefly, quantification of cDNA was performed in the LightCycler (Roche, Mannheim, Germany) using the DNA Master SYBR Green I kit (Roche) with the following cycling conditions: initial denaturation at 95° C. for 10 min, followed by 40 cycles at 95° C. for 10 s, 60° C. for 10 s, and 72° C. for 10 s and a 5-min terminal incubation at 72° C. The data were calculated with AACt. The expression was then normalized against the expression of glyceraldehyde-3-phosphate dehydrogenase (GAPDH). The PCR primers were mouse Survivin sense, 5′-[…]-3′ (SEQ ID NO: 27), anti-sense, 5′-[…]-3′ (SEQ ID NO: 28) (accession number: NM_001012273.1; PCR product: 136 bp); mouse GAPDH sense, 5′-[…]-3′ (SEQ ID NO: 29), anti-sense, 5′-[…]-3′ (SEQ ID NO: 30) (NM_001289726.1; 149 bp). For analysis rabbit inflammatory gene expression, The PCR primers were rabbit TNF-αsense, 5′-[…]-3′ (SEQ ID NO: 31), anti-sense, 5′-[…]-3′ (SEQ ID NO: 32) (accession number: NM 001082263.1); rabbit IL-1βsense, 5′-[…]-3′(SEQ ID NO: 33), anti-sense, 5′-[…]-3′ (SEQ ID NO: 34) (NM 001082201.1); rabbit GAPDH sense, 5′-[…]-3′ (SEQ ID NO: 35), anti-sense, 5′-[…]-3′ (SEQ ID NO: 36) (accession number:NM 001082253.1). The cycle threshold (Ct) values of the PCR product and a GAPDH (Glyceraldehyde 3-phosphate dehydrogenase) control mRNA were used to calculate relative quantities of mRNA.
Similar to the approach in Example 1.2.1, the expression level of survivin mRNA in C2C12 cells was used as an indicator for the function of the 6-mer variants in Tables 3 to 5. Briefly, C2C12 cells in low serum media were treated with 20 μM the 6-mer variants for 6 h. […] The results also confirmed that alanine substation at the glutamic acid (E) residues would severely impair the 6-mer activity.

## NH2-(D-Ser)-Leu-Gly-Ala-Glu-Gln-COOH (SLGAEQ; HELM PEPTIDE1{[dS].L.G.A.E.Q}$$$$V2.0; SMILES CC(C)C[C@H](NC(=O)[C@H](N)CO)C(=O)NCC(=O)N[C@@H](C)C(=O)N[C@@H](CCC(=O)O)C(=O)N[C@@H](CCC(N)=O)C(=O)O) [6-mer dS]
Survivin mRNA [1]
  level of survivin mRNA compared to solvent-treated cells: 2.6 fold
[2]
  corneal fluorescein staining score: 1.4±0.2 score
[3]
  numbers of vascular lesions (hemorrhaging areas in a retina): 2.8±0.6 lesions/retina
Survivin mRNA [4]
  survivin mRNA induction, in words: increased the level of survivin mRNA
